Assay results: PubChem BioAssay AID328 (DTP/NCI, 2004)
Several values for one entry are separate records, joined by “and”; a condition that tells them apart may be missing. Identical values can stand only once. Inconclusive results and toxic doses are left out.

Tested on: BDF1 mice, P388 leukemia ip, median survival T/C
Test: NCI In Vivo Anticancer Drug Screen. Data for tumor model P388 Leukemia (intraperitoneal) in B6D2F1 (BDF1) mice
Conditions: endpoint: median survival time, higher = longer survival
Outline: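 Each value expresses how treatment altered survival: treated-mouse outcome over vehicle-mouse outcome, both groups bearing the transplanted tumour.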

[1] = dose: 100.0 mg/kg/injection, schedule: Q04DX003 (ip), vehicle: Klucel (hydroxypropylcellulose) (HPC)
[2] = dose: 200.0 mg/kg/injection, schedule: Q04DX003 (ip), vehicle: Klucel (hydroxypropylcellulose) (HPC)
[3] = dose: 50.0 mg/kg/injection, schedule: Q01DX009 (ip), vehicle: saline with Tween-80
[4] = dose: 100.0 mg/kg/injection, schedule: Q01DX009 (ip), vehicle: saline with Tween-80
[5] = dose: 200.0 mg/kg/injection, schedule: Q01DX009 (ip), vehicle: saline with Tween-80

CC(C)Cc1c(N)nc(=O)[nH]c1C(=O)O
T/C (dose: 50.0 mg/kg/injection, schedule: Q04DX003 (ip), vehicle: Klucel (hydroxypropylcellulose) (HPC)): 109 % of control
T/C [1]: 95 % of control
T/C [2]: 100 % of control

NC(=O)N(CCCl)N=O
T/C (dose: 0.25 mg/kg/injection, schedule: Q01DX010 (ip), vehicle: saline): 190 % of control
T/C (dose: 0.5 mg/kg/injection, schedule: Q01DX010 (ip), vehicle: saline): 209 % of control and 213 % of control
T/C (dose: 1.0 mg/kg/injection, schedule: Q01DX010 (ip), vehicle: saline): 290 % of control and 300 % of control
T/C (dose: 1.25 mg/kg/injection, schedule: Q01DX010 (ip), vehicle: saline): 272 % of control and 168 % of control
T/C (dose: 2.0 mg/kg/injection, schedule: Q01DX010 (ip), vehicle: saline): 277 % of control
T/C (dose: 2.5 mg/kg/injection, schedule: Q01DX010 (ip), vehicle: saline): 118 % of control and 209 % of control
T/C (dose: 4.0 mg/kg/injection, schedule: Q01DX010 (ip), vehicle: saline): 90 % of control

C[C@]12C=CC(=O)C=C1[C@@H](F)C[C@@H]1[C@@H]2[C@@H](O)C[C@@]2(C)[C@H]1CC[C@]2(O)C(=O)CO
T/C (dose: 25.0 mg/kg/injection, schedule: Q01DX009 (ip), vehicle: Klucel (hydroxypropylcellulose) (HPC)): 104 % of control
T/C (dose: 50.0 mg/kg/injection, schedule: Q01DX009 (ip), vehicle: Klucel (hydroxypropylcellulose) (HPC)): 96 % of control
T/C (dose: 100.0 mg/kg/injection, schedule: Q01DX009 (ip), vehicle: Klucel (hydroxypropylcellulose) (HPC)): 91 % of control and 108 % of control
T/C [1]: 100 % of control
T/C [2]: 104 % of control
T/C (dose: 400.0 mg/kg/injection, schedule: Q04DX003 (ip), vehicle: Klucel (hydroxypropylcellulose) (HPC)): 95 % of control

Cc1cc(N(CCOS(C)(=O)=O)CCOS(C)(=O)=O)ccc1C=O
T/C (dose: 12.5 mg/kg/injection, schedule: Q04DX003 (ip), vehicle: saline with Tween-80): 231 % of control
T/C (dose: 25.0 mg/kg/injection, schedule: Q04DX003 (ip), vehicle: saline with Tween-80): 120 % of control

COc1cc(C=Nc2cc(Cl)cc(Cl)c2)ccc1N(CCCl)CCCl
T/C (dose: 132.0 mg/kg/injection, schedule: Q04DX003 (ip), vehicle: saline with Tween-80): 163 % of control
T/C (dose: 200.0 mg/kg/injection, schedule: Q04DX003 (ip), vehicle: saline with Tween-80): 177 % of control
T/C (dose: 300.0 mg/kg/injection, schedule: Q04DX003 (ip), vehicle: saline with Tween-80): 177 % of control

O=C(O)c1ccc(=O)oc1
T/C (dose: 12.5 mg/kg/injection, schedule: Q01DX009 (ip), vehicle: saline with Tween-80): 108 % of control
T/C (dose: 25.0 mg/kg/injection, schedule: Q01DX009 (ip), vehicle: saline with Tween-80): 99 % of control and 100 % of control
T/C [3]: 108 % of control
T/C [4]: 124 % of control
T/C [5]: 124 % of control

N=C([Se])c1ncn(C2OC(CO)C(O)C2O)c1N (stereo not given)
T/C (dose: 6.25 mg/kg/injection, schedule: Q04DX003 (ip), vehicle: saline): 106 % of control
T/C (dose: 12.5 mg/kg/injection, schedule: Q04DX003 (ip), vehicle: saline): 108 % of control
T/C (dose: 25.0 mg/kg/injection, schedule: Q04DX003 (ip), vehicle: saline): 111 % of control
T/C (dose: 50.0 mg/kg/injection, schedule: Q04DX003 (ip), vehicle: saline): 106 % of control

CCOC(=O)N(C)C(C)Cc1ccccc1 (stereo not given)
T/C [3]: 105 % of control
T/C [4]: 118 % of control

C[C@]12CCC(=O)C[C@@H]1CC[C@@H]1[C@@H]2CC[C@]2(C)[C@@H](OC(=O)N(CCCl)N=O)CC[C@@H]12
T/C (dose: 100.0 mg/kg/injection, schedule: Q01DX009 (ip), vehicle: saline): 100 % of control

CCCCNCCC(SS)c1ccc(Cl)cc1 (stereo not given)
T/C (dose: 50.0 mg/kg/injection, schedule: Q04DX003 (ip), vehicle: saline with Tween-80): 104 % of control
T/C (dose: 100.0 mg/kg/injection, schedule: Q04DX003 (ip), vehicle: saline with Tween-80): 100 % of control

CS(=O)(=O)OCC(O)C(O)COS(C)(=O)=O (stereo not given)
T/C (dose: 50.0 mg/kg/injection, schedule: Q01DX010 (ip), vehicle: saline): 109 % of control
T/C [4]: 91 % of control
T/C (dose: 100.0 mg/kg/injection, schedule: Q01DX010 (ip), vehicle: saline): 109 % of control
T/C [5]: 100 % of control
T/C (dose: 200.0 mg/kg/injection, schedule: Q01DX010 (ip), vehicle: saline): 100 % of control
T/C (dose: 400.0 mg/kg/injection, schedule: Q01DX009 (ip), vehicle: saline with Tween-80): 87 % of control
T/C (dose: 400.0 mg/kg/injection, schedule: Q01DX010 (ip), vehicle: saline): 209 % of control
T/C (dose: 800.0 mg/kg/injection, schedule: Q01DX010 (ip), vehicle: saline): 163 % of control

[F][Fe]([F])([F])([F])([F])[F]
T/C [3]: 95 % of control
T/C [4]: 101 % of control
